# Key:
# E. faecalis ATCC 29212 = assay: Anti-biofilm activity assay, purple violet microtiter method; assay type: cell-based; settings: E. faecalis ATCC 29212 biofilm
# Description: (§1) The inhibitory activity of the obtained compounds has been assessed on five microbial strains, respectively: E. coli ATCC 25922, P. aeruginosa ATCC 27853, S. aureus ATCC 25923, E. faecalis ATCC 29212 and C. albicans ATCC 90029, in a planktonic and adherent growth state.
# (§2) The anti-biofilm activity assay was performed by the purple violet microtiter method, as previously described, allowing us to determine the minimal biofilm inhibitory concentration (MBEC). The same range of concentrations, as in the MIC assay, i.e., from 5 to 0.009 mg/mL has been tested.
# C. albicans ATCC 90029 = assay: as above; assay type: cell-based, Candida albicans; settings: C. albicans ATCC 90029 biofilm
# Description: as §1, §2
# [1] = tested on: Artemia franciscana Kellog nauplii; assay: Toxicity on the Artemia franciscana Kellog crustacean species (lethality of nauplii); assay type: in vivo; settings: tested concentrations 6.2–100 μg/mL (solubility limit), 24 h
# Description: The oocysts (Great Salt Lake, USA) provided by S.K. Trading were grown on artificial seawater medium (Coral Marine, Grotech), dissolved in distilled water with a few minutes of sonication, at 30 g/L concentration. The test was carried out in a 24-well plate, using three replicates. Because of their low solubility, the compounds 1a–d were suspended in the culture medium using sodium alginate (0.045%) (also used a negative control), the testing being carried out at the solubility limit. The concentrations 100, 50, 25, 12.5 and 6.2 μg/mL used for each substance were obtained by successive dilutions starting from the initial suspension. Between 10 and 15 nauplii per well were collected and placed in contact with the test suspensions (1.5 mL/well). All nauplii, dead or alive, were counted and recorded within 24 h of being placed in contact with the tested suspensions. The non-linear modeling of the concentration-lethality relationship was achieved through a four-parameter logistics model (4PL), implemented in several robust variants for estimating parameters in the R package “dr4pl” [78].
# P. aeruginosa ATCC 27892 = assay: Flow cytometry (FCM) membrane depolarization, DiBAC4(3); assay type: cell-based, Pseudomonas aeruginosa; settings: subinhibitory concentration tested 2.5 mg/mL, DiBAC4, 18–24 h
# Description: The investigation of potential mechanisms of antimicrobial action by flow cytometry (FCM) was performed on microbial cultures obtained after 18–24 h of microbial cell incubation in the presence of subinhibitory concentrations of the analyzed compounds. Thus, microbial suspensions with a density of approximately 10^6 CFU/mL were prepared in sterile saline phosphate buffer from exponentially growing microbial cultures, obtained on a solid culture medium. Subinhibitory concentrations of the compounds were prepared in Muller–Hinton liquid culture medium and inoculated with an equal amount of microbial suspension and incubated for 18–24 h at 37 °C.
# Microbial suspensions inoculated in a liquid medium were used as growth control. After incubation, the DiBAC4 fluorochrome solution [bis-(1,3-dibutylbarbituric acid) trimethinoxonol] Invitrogen/Life Technologies, Carlsbad, was added (0.5 μg/mL).
# Fluorescence intensity (FI) was measured with an Accuri C6 plus flow cytometer in the FITC fluorescence channel. Growth control was used to locate the microbial cell population for fluorescence measurements. DiBAC4 dye was used to detect changes in the microbial membrane potential. […] A twofold increased fluorescence intensity (median fluorescence intensity = MFI) was considered to correspond to the depolarized microbial cells. For each subinhibitory concentration, a coloring index (CI) was calculated which represents the ratio of fluorescence intensity (FI) of treated versus untreated cells.
# [2] = Scavenger activity towards ABTS•+ free radical; assay type: biochemical; settings: 6 min; for IC50: linear regression over 25–1000 μM, mean ± SD of three, read-out: IC50 by means of ABTS•+ assay
# Description: The method according to Re R. et al. was used to evaluate the scavenger capacity of the free radical.
# The ABTS^•+ free radical resulted from the reaction between 2,2′-azinobis-(3-ethylbenzothiazoline-6-sulfonic acid) diammonium salt (7.4 mM) (solution 1) (Sigma-Aldrich, Germany) and potassium persulfate (2.6 mM) (solution 2) (Roth, Germany).
# In order to obtain the ABTS^•+ free radical reagent, equal volumes of solutions 1 and 2 were mixed for 16 h. The obtained reagent was kept in the dark; 1 mL of the obtained solution was brought to a 50 mL volumetric flask and diluted with ethanol so that the absorbance at λ = 734 nm would be 0.700 ± 0.02.
# The tested compounds were dissolved and diluted similar to the previous antioxidant assay. […]
# The following formula was used for the calculation of the ABTS^•+ free radical scavenger activity (%) Inhibition %=Abst=0min−Abst=6min/Abst=0min×100 where: Abst = ABTS^•+ solution absorbance in the absence (0 min)/presence (6 min) of the tested compounds.
# (§3) For both the above-mentioned methods, the antioxidant activity was expressed as IC50 values (μM) which represent the concentration of each compound for which the scavenging activity of free radicals is 50%. […]
# [3] = Scavenger activity towards DPPH free radical; assay type: biochemical; settings: 30 min; for IC50: linear regression over 25–1000 μM, mean ± SD of three, read-out: IC50 by means of DPPH assay
# Description: The DPPH (Sigma-Aldrich, Darmstadt, Germany) solution of 0.1 mM concentration was obtained by dissolving 0.0039 g of free radical in 100 mL ethanol, in a volumetric flask. For all determinations, the DPPH solution was freshly prepared and kept in the dark. Ethanol has been chosen since tested compounds were dissolved in ethanol: DMSO = 99:1 (v/v) mixture.
# The analyzed compounds were dissolved in 25 mL of ethanol: DMSO = 99:1 (v/v) mixture in a final concentration of 1000 μM (stock solution), from which several concentrations of 25 μM, 50 μM, 75 μM, 100 μM, 250 μM and 500 μM were obtained by successive dilutions.
# The determination of the antioxidant activity was based on the Ohnishi M et al. method, quoted by Germano M.P. et al..
# […] The samples were kept at rest in the dark for 30 min [79, 81]. Ethanol was used as a blank in order to measure the absorbance at 515 nm (Jasco V-530 spectrophotometer, Jasco, Japan).
# The following formula was used to determine DPPH free radical scavenger activity (%): Inhibition %=Acontrol−Asample/Acontrol×100 where, A = absorbance of the 0.1 mM DPPH solution in the absence (control)/presence (sample) of tested compounds after 30 min.
# as §3
SMILES,minimum biofilm inhibitory concentration (MBIC) (E. faecalis ATCC 29212) [mg/mL],minimum biofilm inhibitory concentration (MBIC) (C. albicans ATCC 90029) [mg/mL],toxicity (in words) [1],staining index value (SI) (P. aeruginosa ATCC 27892),IC50 [2] [mM],DPPH free radical scavenger capacity ([3]; at 25 μM) [%],DPPH free radical scavenger capacity ([3]; at 1000 μM) [%],IC50 [3] [mM],ABTS•+ free radical scavenger activity ([2]; at 25 μM) [%],ABTS•+ free radical scavenger activity ([2]; at 1000 μM) [%]
"O=C(Nc1ccc(Cl)c(Cl)c1)ON=C1c2ccccc2-c2ccccc21 [Compound 1d, 9-((3,4-dichloro-phenyl)carbamoyloxymino)fluoren]",1.25,0.312,moderate toxicity,20.45,–,–,–,–,–,–
"O=C(Nc1ccccc1)ON=C1c2ccccc2-c2ccccc21 [Compound 1a, 9-(phenylcarbamoyloxymino)fluoren]",1.25,0.312,not toxic,6.68,9.8854 ± 0.000251,12.66,19.81,5.7352 ± 8.28e-05,–,–
"O=C(Nc1cccc(Cl)c1)ON=C1c2ccccc2-c2ccccc21 [Compound 1c, 9-((3-chloro-phenyl)carbamoyloxymino)fluoren]",0.312,0.312,not toxic,2.38,18.2,–,24.64,5.208 ± 0.000124,12.53,–
"Cc1cccc(NC(=O)ON=C2c3ccccc3-c3ccccc32)c1 [Compound 1b, 9-((3-methyl-phenyl)carbamoyloximino)fluoren]",1.25,0.078,not toxic,6.5,9.3794 ± 0.00102,–,16.29,12.263 ± 5.74e-05,–,26.60

# Source: article PMC10138554, “Insights into the Microbicidal, Antibiofilm, Antioxidant and Toxicity Profile of New O-Aryl-Carbamoyl-Oxymino-Fluorene Derivatives” (International Journal of Molecular Sciences, 2023)
